# Results reported in patent US7648993B2, “Methods of treating disorders with Group I mGluR antagonists” (Brown University, priority 2001, dated 2010).
# Key:
# [1] = test system: cultured hippocampal neurons; assay: Acid strip immunocytochemistry for internalized GluR1 (AMPARs); type: cell-based, rat
# [2] = test system: cultured hippocampal cells; assay: AMPAR-mediated mEPSC recordings; type: cell-based, rat; settings: for mEPSC inter-event interval, % of baseline: 5 min; for mEPSC amplitude, % baseline: not statistically significant
# [3] = test system: hippocampal area CA1 slices; assay: Sharp electrode EPSP and whole cell voltage-clamp EPSC recordings in hippocampal slices; type: cell-based, Long Evans rats; settings: DHPG 50 μM, 5 min
# Description: (§1) All animals were used in accordance with procedures approved by the Brown University Institutional Animal Care and Use Committee. Hippocampal slices were prepared from postnatal day 21-30 (P21-30) Long Evans rats (Charles River, Cambridge, Mass.) and mGluR5 knockout mice (Lu et al. 1997) as described previously (Huber et al. 2000). For most experiments, CA3 was removed immediately after sectioning. Slices recovered for 1-2 h at room temperature (rats) or at 30° C. (mice) in artificial cerebrospinal fluid (ACSF) containing (in mM) 124 NaCl, 5 KCl, 1.25 NaH2PO4, 26 NaHCO3, 1 MgCl2, 2 CaCl2, and 10 dextrose, saturated with 95% O2-5% CO2. For recording, slices were placed in a submersion recording chamber and perfused with 30° C. ACSF at a rate of 2 ml/min.
# Synaptically evoked field potentials (FPs) were recorded from area CA1 as described previously. […]
# The group data were analyzed as follows: 1) the initial slopes of the FPs and excitatory postsynaptic potentials (EPSPs), or the amplitude of the excitatory postsynaptic currents (EPSCs), for each experiment were expressed as percentages of the preconditioning or DHPG baseline average, 2) the time scale in each experiment was converted to time from the onset of conditioning or DHPG, and 3) the time-matched, normalized data were averaged across experiments and expressed in the text and figures as the means ±SE. […]
# [4] = test system: CA1 neurons in hippocampal slices; assay: NMDA-evoked currents in CA1 neurons of hippocampal slices; type: cell-based, Long Evans rats; settings: DHPG 100 μM, 5 min; 50-60 min after treatment
# Description: As an additional test for an mGluR-induced loss of NMDAR function, we examined the effects of 100 μM DHPG (5 min) on currents evoked by NMDA applied near the proximal portion of the primary apical dendrite (FIG. 9B). Significant depression of NMDAR currents occurred (percent baseline at 50-60 min after DHPG treatment, DHPG, 61.1±12.0, n=7; control, 97.3±9.4; n=7; p<0.05); however, the time course of this change was much slower than that observed for synaptically evoked EPSCs. […] The early LTD of EPSCs could be accounted for by a presynaptic mechanism or by the rapid dispersal of synaptic NMDARs (without immediate internalization). […] Regardless of the early consequences, however, the parallel depression of NMDAR EPSCs and NMDA-evoked responses 60 minutes after DHPG treatment is consistent with an eventual reduction in surface NMDAR expression during mGluR-LTD.
# Hippocampal slices were prepared from P21-30 Long Evans rats (Charles River, Cambridge, Mass.) as described previously^13,14. Slices recovered for 1-2 h at room temperature in artificial cerebrospinal fluid (ACSF) containing 124 mM NaCl, 5 mM KCl, 1.25 mM NaH2PO4, 26 mM NaHCO3, 1 mM MgCl2, 2 mM CaCl2, 10 mM dextrose, saturated with 95% O2, 5% CO2. […]
# Synaptically evoked-NMDAR-mediated EPSCs were recorded from area CA1 as described previously for visual cortex^20. […]
# [5] = test system: CA1 neurons in hippocampal slices; assay: Synaptically evoked NMDAR-mediated EPSCs in CA1 neurons of hippocampal slices; type: cell-based, Long Evans rats; settings: 5 min, 30 minutes after treatment, +40 mV
# Description: The loss of synaptic NR1 clusters clearly distinguishes the effect of DHPG from other treatments that selectively affect AMPARs^2,17-19.
# Hippocampal slices were prepared from P21-30 Long Evans rats (Charles River, Cambridge, Mass.) as described previously^13,14. Slices recovered for 1-2 h at room temperature in artificial cerebrospinal fluid (ACSF) containing 124 mM NaCl, 5 mM KCl, 1.25 mM NaH2PO4, 26 mM NaHCO3, 1 mM MgCl2, 2 mM CaCl2, 10 mM dextrose, saturated with 95% O2, 5% CO2. For recording, slices were placed in a submersion recording chamber and perfused with 30° C. ACSF at a rate of 2 ml/min.
# Synaptically evoked-NMDAR-mediated EPSCs were recorded from area CA1 as described previously for visual cortex^20. NMDA-evoked currents were examined by picospritzing 1 mM NMDA (made in ACSF), applied for 3.5-12.5 ms, near the proximal portion of the primary apical dendrite. NMDA-evoked currents were elicited once every two minutes. Stimulation intensity or picospritz pulse duration/pressure were adjusted to evoke an inward current with amplitude of 50 pA or greater.
# [6] = test system: hippocampal area CA1 slices; assay: Field potential (FP) recordings in area CA1 of rat hippocampal slices (DHPG-LTD); type: cell-based, Long Evans rats; settings: for FP, % of pre-DHPG baseline (synaptic responses stabilized at a depressed level): after drug wash out
# Description: as §1
# Synaptically evoked field potentials (FPs) were recorded from area CA1 as described previously. Sharp microelectrode and whole cell voltage-clamp recordings were made using Axoclamp 2B and Axopatch 1D amplifiers (Axon Instruments), respectively. Sharp electrodes (80-120 M Ω) were filled with 3 M K-acetate and 10 mM KCl; patch pipettes (3-7 M Ω) were filled with (in mM) 134 K-gluconate, 6 KCl, 4 NaCl, 10 HEPES, 0.2 EGTA, 4 MgATP, 0.3 TrisGTP, and 14 phosphocreatine. The pH of the internal solution was adjusted to 7.25 with KOH, and the osmolarity was adjusted to 300 mOsm with H2O or sucrose. Only experiments in which there was less than a 15% change in series resistance were included in the analysis. Waveforms were filtered at 2 kHz and acquired and digitized at 10 kHz on a PC using Experimenter's Workbench (DataWave Systems, Boulder, Colo.).
# Baseline responses were collected every 10-30 s using a stimulation intensity (10-30 μA; 0.2 ms) yielding 50-60% of the maximal response. Experiments in which there was a>5% drift in the response magnitude during the 20-min baseline period before DHPG or LFS were excluded from further analysis. All experiments with mGluR5 KO mice used wildtype littermates as controls and were performed blind to the genotype, later determined by Therion (Troy, N.Y.). LFS consisted of 900 pulses at 1 Hz. PP-LFS consisted of 900 pairs of stimuli (50-ms interstimulus interval) delivered at 1 Hz. In saturation experiments, stimulus duration was increased from 0.2 to 0.4 ms during PP-LFS.
# The group data were analyzed as follows: 1) the initial slopes of the FPs and excitatory postsynaptic potentials (EPSPs), or the amplitude of the excitatory postsynaptic currents (EPSCs), for each experiment were expressed as percentages of the preconditioning or DHPG baseline average, 2) the time scale in each experiment was converted to time from the onset of conditioning or DHPG, and 3) the time-matched, normalized data were averaged across experiments and expressed in the text and figures as the means ±SE. Significant differences between groups were determined using an independent t-test or ANOVA performed on a 5-min average taken 1 h after LFS or DHPG application.
# R,S-DHPG and D-2-amino-5-phosphonopentanoic acid (D-AP5) was purchased from Tocris (St. Louis, Mo.); all other chemicals were from Sigma Chemical (St Louis, Mo.). DHPG was prepared as a 100 times stock in H2O, aliquoted and stored at −20° C. Fresh stocks were made once a week. A 10 times stock of AP5 was prepared in ACSF and stored at 4° C. These stocks were diluted in ACSF to achieve their final concentrations. Picrotoxin was dissolved directly into ACSF immediately before use.
structure (smiles),measurement,setting,value
"NC(C(=O)O)c1cc(O)cc(O)c1 (racemic) [DHPG, (RS)-3,5-dihydroxyphenylglycine]",internalized GluR1 puncta,"[1]; DHPG 50 μM, 5 min, 15 minutes after treatment onset",1.44±0.17 puncta per 10 μm of dendrite
same,internalized GluR1 puncta,"[1]; DHPG 50 μM, 5 min, 1 hour",1.14±0.15 puncta per 10 μm of dendrite
same,"internalized GluR1 puncta, APV experiment","[1]; DHPG 50 μM, 5 min, APV 50 μM",1.49±0.22 puncta per 10 μm of dendrite
same,"internalized GluR1 puncta, LY344545 experiment","[1]; DHPG 50 μM, 5 min, LY344545 100 μM",1.39±0.34 puncta per 10 μm of dendrite
same,"internalized GluR1 puncta, cycloheximide experiment","[1]; measured at 60 minutes, chx 60 μM applied 15 min before DHPG",1.5±0.27 puncta per 10 μm of dendrite
same,"mEPSC inter-event interval, % of baseline",[2]; 15 min after DHPG 50 μM,315%
same,"mEPSC amplitude, % baseline",[2]; 15 minutes following DHPG,94.2%
same,"mEPSC inter-event interval, % of baseline",[2]; 60 minutes after DHPG 50 μM,319%
same,"mEPSC amplitude, % baseline",[2]; 60 minutes following DHPG,92.2%
same,"EPSP slope after DHPG (LTD), % of baseline",[3]; sharp electrode recording,61±5%
same,"EPSC amplitude after DHPG (LTD), % of baseline",[3]; whole cell voltage clamp at −70 mV,69±5%
same,"NMDA-evoked currents, percent baseline",[4],61.1±12.0 percent baseline
same,NMDAR-EPSC amplitude as percent of baseline,[5]; DHPG 50 μM,70.7±2.9% of baseline
same,NMDAR-EPSC amplitude as percent of baseline,[5]; DHPG 100 μM,57.7±1.0% of baseline
same,"FP slope, % of pre-DHPG baseline after saturation of mGluR-dependent LTD",[6]; DHPG 50 μM applied after PP-LFS in D-AP5 50 μM,100±5%
same,"FP, % of pre-DHPG baseline (synaptic responses stabilized at a depressed level)","[6]; DHPG 50 μM, 5 min",69±5%
same,"DHPG-LTD, two-pathway experiment, unstimulated input","[6]; DHPG 50 μM, 5 min, input not stimulated during DHPG",68±5%
same,"DHPG-LTD, two-pathway experiment, stimulated input","[6]; DHPG 50 μM, 5 min, input stimulated during DHPG",62±4%
same,"magnitude of DHPG-LTD, interleaved control slices without AP5","[6]; DHPG 50 μM, 5 min, no AP5",85±3%
same,"FP, % of pre-DHPG baseline (synaptic responses stabilized at a depressed level)","[6]; DHPG 100 μM, 5 min",48±1%
same,"FP slope, % of pre-DHPG baseline after saturation of NMDAR-dependent LTD",[6]; DHPG applied after repeated episodes of LFS,81±5%
